The subject of test [1] is mouse FL5.12 cells transfected with Bcl-XL. The test can be described thus: FL5.12 cellular assay (cell viability, CellTiter-Glo).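 Also: each EC50 determination derived from duplicate measurements.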 It counts as cell-based. The following applies: FL5.12 cells transfected with Bcl-XL, IL-3-depleted, 3% FBS assay media, 24 hours, CellTiter-Glo, read-out: FL5.12 Bcl-xL, - IL3, EC 50. (Cellular ATP, detected with luciferase, serves as a proxy for viable cell number.)

The target of a further test is GST-Bcl-xL (Homo sapiens, UniProt Q07817). The following applies: read-out: TR-FRET binding Bcl-xL Ki. On the technique in general: In TR-FRET formats the signal depends on donor and acceptor labels being close together.

Like-named read-outs stand apart in the source and are kept apart here.

As usually defined, the Ki is a dissociation constant, usually derived from enzyme kinetics or from competition with a known ligand.

Chain of GST-Bcl-xL (Q07817 whole entry): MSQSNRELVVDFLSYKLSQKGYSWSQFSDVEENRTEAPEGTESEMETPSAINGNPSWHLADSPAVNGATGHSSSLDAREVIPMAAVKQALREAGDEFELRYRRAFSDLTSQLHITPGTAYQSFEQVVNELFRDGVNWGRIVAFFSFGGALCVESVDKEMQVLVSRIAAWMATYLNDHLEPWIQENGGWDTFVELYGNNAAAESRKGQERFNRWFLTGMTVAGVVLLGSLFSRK

Regarding `Cc1c(-c2ccc(N3CCc4cccc(C(=O)Nc5nc6ccccc6s5)c4C3)nc2C(=O)O)cccc1N(C)C(=O)C1CCCCC1` [Example 177, 6-[8-(1,3-benzothiazol-2-ylcarbamoyl)-3,4-dihydroisoquinolin-2(1H)-yl]-3-{3-[(cyclohexylcarbonyl)(methyl)amino]-2-methylphenyl}pyridine-2-carboxylic acid], in test [1] (Mus musculus), the EC50 came out at 24 nM. For the same compound, the Ki at GST-Bcl-xL is under 0.1 nM.

Regarding `Cc1c(-c2ccc(N3CCc4cccc(C(=O)Nc5nc6ccccc6s5)c4C3)nc2C(=O)O)cc(C(=O)O)n1Cc1ccccc1` [Example 124, 6-[8-(1,3-benzothiazol-2-ylcarbamoyl)-3,4-dihydroisoquinolin-2(1H)-yl]-3-(1-benzyl-5-carboxy-2-methyl-1H-pyrrol-3-yl)pyridine-2-carboxylic acid], in test [1] (Mus musculus), the EC50 came out at 57 nM. The Ki on GST-Bcl-xL is under 0.1 nM.

As for `CC(C)(C)Cn1cc(-c2ccc(N3CCc4cccc(C(=O)Nc5nc6ccccc6s5)c4C3)nc2C(=O)O)cn1` [Example 59, 6-[8-(1,3-benzothiazol-2-ylcarbamoyl)-3,4-dihydroisoquinolin-2(1H)-yl]-3-[1-(2,2-dimethylpropyl)-1H-pyrazol-4-yl]pyridine-2-carboxylic acid], the EC50 in test [1] is over 1000 nM. Also, on GST-Bcl-xL, the Ki is 424 nM.

In the case of `O=C(Nc1nc2ccccc2s1)c1cccc2c1CN(c1ccc(-c3cnn(Cc4ccc(F)c([N+](=O)[O-])c4)c3)c(C(=O)O)n1)CC2` [Example 45, 6-[8-(1,3-benzothiazol-2-ylcarbamoyl)-3,4-dihydroisoquinolin-2(1H)-yl]-3-[1-(4-fluoro-3-nitrobenzyl)-1H-pyrazol-4-yl]pyridine-2-carboxylic acid], the EC50 in test [1] (Mus musculus) was over 1000 nM. Besides, the Ki at GST-Bcl-xL came to 19 nM.

Consider `O=C(Nc1nc2ccccc2s1)c1cccc2c1CN(c1ccc(-c3cnn(Cc4ccc(Cl)cc4)c3)c(C(=O)O)n1)CC2` [Example 15, 6-[8-(1,3-benzothiazol-2-ylcarbamoyl)-3,4-dihydroisoquinolin-2(1H)-yl]-3-[1-(4-chlorobenzyl)-1H-pyrazol-4-yl]pyridine-2-carboxylic acid], for which the EC50 in test [1] is over 1000 nM. Besides, the Ki on GST-Bcl-xL turned out to be 35 nM.

Regarding `Cc1cc(Oc2ccccc2)ccc1-c1ccc(N2CCc3cccc(C(=O)Nc4nc5ccccc5s4)c3C2)nc1C(=O)O` [Example 111, 6-[8-(1,3-benzothiazol-2-ylcarbamoyl)-3,4-dihydroisoquinolin-2(1H)-yl]-3-(2-methyl-4-phenoxyphenyl)pyridine-2-carboxylic acid], the EC50 in test [1] (Mus musculus) is over 1000 nM. Further, the Ki on GST-Bcl-xL amounted to 21 nM.

Turning to `CS(=O)(=O)c1cccc(Cn2cc(-c3ccc(N4CCc5cccc(C(=O)Nc6nc7ccccc7s6)c5C4)nc3C(=O)O)cn2)c1` [Example 69, 6-[8-(1,3-benzothiazol-2-ylcarbamoyl)-3,4-dihydroisoquinolin-2(1H)-yl]-3-{1-[3-(methylsulfonyl)benzyl]-1H-pyrazol-4-yl}pyridine-2-carboxylic acid], the EC50 in test [1] (Mus musculus) was over 1000 nM. The Ki on GST-Bcl-xL was 91 nM.

For the compound `O=C(Nc1nc2ccccc2s1)c1cccc2c1CN(c1ccc(-c3cnn(Cc4ccccc4-c4ccccc4)c3)c(C(=O)O)n1)CC2` [Example 62, 6-[8-(1,3-benzothiazol-2-ylcarbamoyl)-3,4-dihydroisoquinolin-2(1H)-yl]-3-[1-(biphenyl-2-ylmethyl)-1H-pyrazol-4-yl]pyridine-2-carboxylic acid], the EC50 in test [1] (Mus musculus) is over 1000 nM. Moreover, on GST-Bcl-xL, the Ki came to 61 nM.

On to `Cc1c(-c2ccc(N3CCc4cccc(C(=O)Nc5nc6ccccc6s5)c4C3)nc2C(=O)O)cnn1CC1(C)CCCCC1` [Example 82, 6-[8-(1,3-benzothiazol-2-ylcarbamoyl)-3,4-dihydroisoquinolin-2(1H)-yl]-3-{5-methyl-1-[(1-methylcyclohexyl)methyl]-1H-pyrazol-4-yl}pyridine-2-carboxylic acid], for which the EC50 in test [1] (Mus musculus) is 8 nM. Also, the Ki at GST-Bcl-xL amounted to 0.5 nM.

As for `O=C(Nc1nc2ccccc2s1)c1cccc2c1CN(c1ccc(-c3cnn(CC4CCCCC4)c3)c(C(=O)O)n1)CC2` [Example 42, 6-[8-(1,3-benzothiazol-2-ylcarbamoyl)-3,4-dihydroisoquinolin-2(1H)-yl]-3-[1-(cyclohexylmethyl)-1H-pyrazol-4-yl]pyridine-2-carboxylic acid], the EC50 in test [1] (Mus musculus) came to 233 nM. In addition, at GST-Bcl-xL, the Ki amounted to 2 nM.

Turning to `O=C(Nc1nc2ccccc2s1)c1cccc2c1CN(c1ccc(-c3cnn(Cc4ccccc4OCCN4CCOCC4)c3)c(C(=O)O)n1)CC2` [Example 46, 6-[8-(1,3-benzothiazol-2-ylcarbamoyl)-3,4-dihydroisoquinolin-2(1H)-yl]-3-(1-{2-[2-(morpholin-4-yl)ethoxy]benzyl}-1H-pyrazol-4-yl)pyridine-2-carboxylic acid], in test [1] (Mus musculus), the EC50 was over 1000 nM. Besides, at GST-Bcl-xL, the Ki is 9 nM.

Turning to `Cc1c(-c2ccc(N3CCc4cccc(C(=O)Nc5nc6ccccc6s5)c4C3C)nc2C(=O)O)cnn1CC1(C)CCCCC1` (stereo not shown) [Example 163, 6-[8-(1,3-benzothiazol-2-ylcarbamoyl)-1-methyl-3,4-dihydroisoquinolin-2(1H)-yl]-3-{5-methyl-1-[(1-methylcyclohexyl)methyl]-1H-pyrazol-4-yl}pyridine-2-carboxylic acid], the EC50 in test [1] (Mus musculus) was determined as 211 nM. Further, the Ki at GST-Bcl-xL stood at 0.4 nM.

For `O=C(Nc1nc2ccccc2s1)c1cccc2c1CN(c1ccc(-c3cnn(C(c4ccccc4)c4ccccc4)c3)c(C(=O)O)n1)CC2` [Example 75, 6-[8-(1,3-benzothiazol-2-ylcarbamoyl)-3,4-dihydroisoquinolin-2(1H)-yl]-3-[1-(diphenylmethyl)-1H-pyrazol-4-yl]pyridine-2-carboxylic acid], the EC50 in test [1] (Mus musculus) was 919 nM. For the same compound, the Ki on GST-Bcl-xL stood at 28 nM.

Take `O=C(Nc1nc2ccccc2s1)c1cccc2c1CN(c1ccc(-c3ccn(C(=O)c4ccccc4)c3)c(C(=O)O)n1)CC2` [Example 127, 6-[8-(1,3-benzothiazol-2-ylcarbamoyl)-3,4-dihydroisoquinolin-2(1H)-yl]-3-(1-benzoyl-1H-pyrrol-3-yl)pyridine-2-carboxylic acid]: the EC50 in test [1] (Mus musculus) was over 1000 nM. The Ki on GST-Bcl-xL stood at 2 nM.

For the compound `COCCC1(Cn2ncc(-c3ccc(N4CCc5cccc(C(=O)Nc6nc7ccccc7s6)c5C4)nc3C(=O)NS(C)(=O)=O)c2C)CCCCCC1` [Example 148, N-(1,3-benzothiazol-2-yl)-2-{5-(1-{[1-(2-methoxyethyl)cycloheptyl]methyl}-5-methyl-1H-pyrazol-4-yl)-6-[(methylsulfonyl)carbamoyl]pyridin-2-yl}-1,2,3,4-tetrahydroisoquinoline-8-carboxamide], the EC50 in test [1] (Mus musculus) was 13 nM. The Ki at GST-Bcl-xL is under 0.1 nM.

Turning to `Cc1c(-c2ccc(N3CCc4cccc(C(=O)Nc5nc6ccccc6s5)c4C3)nc2C(=O)O)cnn1Cc1ccccc1OCCCN1CCOCC1` [Example 81, 6-[8-(1,3-benzothiazol-2-ylcarbamoyl)-3,4-dihydroisoquinolin-2(1H)-yl]-3-(5-methyl-1-{2-[3-(morpholin-4-yl)propoxy]benzyl}-1H-pyrazol-4-yl)pyridine-2-carboxylic acid], the EC50 in test [1] (Mus musculus) worked out at 37 nM. Further, the inhibitory constant (Ki) on GST-Bcl-xL is 0.6 nM.

As for `Cc1c(-c2ccc(N3CCc4cccc(C(=O)Nc5nc6ccccc6s5)c4C3)nc2C(=O)O)ccnc1OC1CCCCC1` [Example 138, 6-[8-(1,3-benzothiazol-2-ylcarbamoyl)-3,4-dihydroisoquinolin-2(1H)-yl]-2'-(cyclohexyloxy)-3'-methyl-3,4'-bipyridine-2-carboxylic acid], the EC50 in test [1] (Mus musculus) was over 1000 nM. The Ki on GST-Bcl-xL is under 0.1 nM.
